These results are taken from patent US6812235B2, “Beta-alanine derivatives and their use as receptor anatgonists” (Fujisawa Pharmaceutical Co., Ltd., priority 2000, dated 2004).

SMILES strings stand for the structures.

In this assay the test system is platelet aggregation induced by ADP in platelet rich plasma (PRP). Briefly: Effect on platelet aggregation induced by adenosine diphosphate (ADP). Particulars: human PRP 3×10^8 platelets/ml; test compound in water, 2 minutes at 37° C.; ADP final 2.5 μM; aggregometer; read-out: IC50 (inhibition of ADP-induced platelet aggregation). The class given is cell-based. The procedure:
Test: Effect on Platelet Aggregation Induced by Adenosine Diphosphate (ADP)
Platelet rich plasma (PRP) which contains 3×10^8 platelets/ml was prepared from human blood. To the 225 μl of PRP, 25 μl of the solution of the test compound in water was added, and then stirred for 2 minutes at 37° C. To the solution 5 μl of ADP (final 2.5 μM) was added as an aggregation inducer. Aggregation was measured by using an aggregometor (NBS HEMA-TRACER 801). Activity of […] (test compound) was expressed as IC50 value, i.e., dose required for […] of platelet aggregation.

A word on the IC50: it is the point on the concentration scale where inhibition reaches its midpoint.

Regarding `COC(=O)C(=O)N[C@@H](CNC(=O)[C@@H]1CCCN(C(=O)CCC2CCNCC2)C1)C(=O)O` [Example 25, N-[(3R)-1-{3-(4-piperidyl)-propionyl}-3-piperidylcarbonyl]-2(S)-methoxyoxalylamino-β-alanine], the IC50 amounted to 85 nM.
